Assays:
CYPIR (Rice Flatsedge) = test: Postemergence weed control under flooded paddy conditions; type: in vivo, Cyperus iria; conditions: postemergence weeds, rated 3 to 4 weeks after treatment
Outline: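 Containers holding 3–5 cm weeds and rice at 1.5–2.5 leaves are flooded to 1.5–3 cm above soil. Compound in 50/50 v/v aqueous/acetone is then added directly to the water, about 0.0313–0.500 kg/ha. Plants are kept in the greenhouse and rated 0–9 visually at 3–4 weeks.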

[1] = system: SAGPY (Arrowhead (Pygmaea)); test: Preemergence weed control under flooded paddy conditions; type: in vivo, Sagittaria pygmaea; conditions: rated 3-4 weeks after treatment
Outline: (§1)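 Visual injury scored 0-9 against control three to four weeks post-treatment, greenhouse-grown. Application: acetone/water (50/50) solutions dosed directly into flood water (1.5-3 cm over silt loam, planted top 0.5 cm), roughly 0.0313 to 0.500 kg/ha active ingredient.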

[2] = system: IPOHE (Morningglory, Ivyleaf); test: Preemergence herbicidal evaluation; type: in vivo, Ipomoea hederacea; conditions: rated 4-5 weeks after treatment
Outline: (§2)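 Greenhouse preemergence test: seed-soil mix sown on ~1 inch soil; aqueous acetone spray at equivalent of ~0.0156–0.500 kg/ha; greenhouse-held and watered; scored 0–9 visually at 4–5 weeks.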

[3] = system: GLXMAW (Soybean, Williams); test: Preemergence herbicidal evaluation; type: in vivo, Glycine max, (L.) Merr. cv Williams; conditions: rated 4-5 weeks after treatment
Outline: as §2

AMBEL (Ragweed, Common) = test: Postemergence herbicidal evaluation; type: in vivo, Ambrosia artemisifolia; conditions: postemergence
Outline: (§3)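 Seedlings grown about two weeks were sprayed at 40 psi with compound dispersed in 50/50 acetone/water plus 0.5% TWEEN 20, at about 0.0156 to 0.500 kg/ha. Plants were kept in the greenhouse and scored 4–5 weeks later on a 0–9 visual scale against untreated controls.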

ECHCG (Barnyardgrass) = test: Preemergence herbicidal evaluation; type: in vivo, Echinochloa crus-galli; conditions: rated 4-5 weeks after treatment
Outline: as §2

MOOVA (Monochoria) = test: Preemergence weed control under flooded paddy conditions; type: in vivo, Monochoria vaginalis; conditions: rated 3-4 weeks after treatment
Outline: as §1

ABUTH (Velvetleaf) = test: Preemergence herbicidal evaluation; type: in vivo, Abutilon theophrasti; conditions: rated 4-5 weeks after treatment
Outline: as §2

CASOB (Sicklepod) [4] = test: Preemergence herbicidal evaluation; type: in vivo, Cassia obtusifolia; conditions: rated 4-5 weeks after treatment
Outline: as §2

[5] = system: TRZAWR (Wheat, Winter, cv Riband); test: Preemergence herbicidal evaluation; type: in vivo, Triticum aestivum; conditions: rated 4-5 weeks after treatment
Outline: as §2

[6] = system: IPOHE (Morningglory, Ivyleaf); test: Postemergence herbicidal evaluation; type: in vivo, Ipomoea hederacea; conditions: postemergence
Outline: as §3

CASOB (Sicklepod) [7] = test: Postemergence herbicidal evaluation; type: in vivo, Cassia obtusifolia; conditions: postemergence
Outline: as §3

ZEAMX (Corn, Field) = test: Preemergence herbicidal evaluation; type: in vivo, Zea mays; conditions: rated 4-5 weeks after treatment
Outline: as §2

GALAP (Galium) = test: Postemergence herbicidal evaluation; type: in vivo, Galium aparine; conditions: postemergence
Outline: as §3

C=CCN1C(=O)C(CC(=O)OC(C)C)SC1=Nc1cc(-n2c(=O)cc(C(F)(F)F)n(C)c2=O)c(F)cc1Cl (stereo not shown) [Compound 66, Isopropyl 3-allyl-2-{{2-chloro-5-[3,6-dihydro-3-methyl-2,6-dioxo-4-(trifluoromethyl)-1(2H)-pyrimidinyl]-4-fluorophenyl}imino}-4-oxo-5-thiazolidineacetate]
Herbicidal rating CYPIR (CYPIR (Rice Flatsedge); Rate 0.0313 kg/ha): 6.0
Herbicidal rating CYPIR (CYPIR (Rice Flatsedge); Rate 0.0625 kg/ha): 6.0
Herbicidal rating CYPIR (CYPIR (Rice Flatsedge); Rate 0.1250 kg/ha): 7.0
Herbicidal rating CYPIR (CYPIR (Rice Flatsedge); Rate 0.2500 kg/ha): 7.0
SAGPY herbicidal effect rating ([1]; 0.0313 kg/ha): 3.0
SAGPY herbicidal effect rating ([1]; 0.0625 kg/ha): 4.0
SAGPY herbicidal effect rating ([1]; 0.1250 kg/ha): 4.0
SAGPY herbicidal effect rating ([1]; 0.2500 kg/ha): 4.0
Preemergence herbicidal rating IPOHE ([2]; rate 0.0156 kg/ha): 0.0
Preemergence herbicidal rating IPOHE ([2]; rate 0.0313 kg/ha): 0.0
Preemergence herbicidal rating IPOHE ([2]; rate 0.0625 kg/ha): 0.5
Preemergence herbicidal rating IPOHE ([2]; rate 0.1250 kg/ha): 3.0
Preemergence herbicidal rating IPOHE ([2]; rate 0.2500 kg/ha): 6.0
Preemergence herbicidal rating IPOHE ([2]; rate 0.5000 kg/ha): 9.0
Preemergence herbicidal rating GLXMAW ([3]; rate 0.0156 kg/ha): 0.0
Preemergence herbicidal rating GLXMAW ([3]; rate 0.0313 kg/ha): 0.0
Preemergence herbicidal rating GLXMAW ([3]; rate 0.0625 kg/ha): 0.5
Preemergence herbicidal rating GLXMAW ([3]; rate 0.1250 kg/ha): 0.5
Preemergence herbicidal rating GLXMAW ([3]; rate 0.2500 kg/ha): 4.5
Preemergence herbicidal rating GLXMAW ([3]; rate 0.5000 kg/ha): 9.0
AMBEL herbicidal rating (AMBEL (Ragweed, Common); rate 0.0158 kg/ha): 6.0
AMBEL herbicidal rating (AMBEL (Ragweed, Common); rate 0.0313 kg/ha): 9.0
AMBEL herbicidal rating (AMBEL (Ragweed, Common); rate 0.0625 kg/ha): 9.0
AMBEL herbicidal rating (AMBEL (Ragweed, Common); rate 0.1250 kg/ha): 9.0
Preemergence herbicidal rating ECHCG (ECHCG (Barnyardgrass); rate 0.0156 kg/ha): 0.0
Preemergence herbicidal rating ECHCG (ECHCG (Barnyardgrass); rate 0.0313 kg/ha): 0.0
Preemergence herbicidal rating ECHCG (ECHCG (Barnyardgrass); rate 0.0625 kg/ha): 0.5
Preemergence herbicidal rating ECHCG (ECHCG (Barnyardgrass); rate 0.1250 kg/ha): 0.5
Preemergence herbicidal rating ECHCG (ECHCG (Barnyardgrass); rate 0.2500 kg/ha): 3.0
Preemergence herbicidal rating ECHCG (ECHCG (Barnyardgrass); rate 0.5000 kg/ha): 9.0
MOOVA herbicidal effect rating (MOOVA (Monochoria); 0.0313 kg/ha): 9.0
MOOVA herbicidal effect rating (MOOVA (Monochoria); 0.0625 kg/ha): 9.0
MOOVA herbicidal effect rating (MOOVA (Monochoria); 0.1250 kg/ha): 9.0
MOOVA herbicidal effect rating (MOOVA (Monochoria); 0.2500 kg/ha): 9.0
Preemergence herbicidal rating ABUTH (ABUTH (Velvetleaf); rate 0.0156 kg/ha): 5.0
Preemergence herbicidal rating ABUTH (ABUTH (Velvetleaf); rate 0.0313 kg/ha): 8.0
Preemergence herbicidal rating ABUTH (ABUTH (Velvetleaf); rate 0.0625 kg/ha): 9.0
Preemergence herbicidal rating ABUTH (ABUTH (Velvetleaf); rate 0.1250 kg/ha): 9.0
Preemergence herbicidal rating ABUTH (ABUTH (Velvetleaf); rate 0.2500 kg/ha): 9.0
Preemergence herbicidal rating ABUTH (ABUTH (Velvetleaf); rate 0.5000 kg/ha): 9.0
Preemergence herbicidal rating CASOB (CASOB (Sicklepod) [4]; rate 0.0156 kg/ha): 0.0
Preemergence herbicidal rating CASOB (CASOB (Sicklepod) [4]; rate 0.0313 kg/ha): 0.0
Preemergence herbicidal rating CASOB (CASOB (Sicklepod) [4]; rate 0.0625 kg/ha): 0.0
Preemergence herbicidal rating CASOB (CASOB (Sicklepod) [4]; rate 0.1250 kg/ha): 0.5
Preemergence herbicidal rating CASOB (CASOB (Sicklepod) [4]; rate 0.2500 kg/ha): 0.5
Preemergence herbicidal rating CASOB (CASOB (Sicklepod) [4]; rate 0.5000 kg/ha): 3.0
Preemergence herbicidal rating TRZAWR ([5]; rate 0.0156 kg/ha): 0.0
Preemergence herbicidal rating TRZAWR ([5]; rate 0.0313 kg/ha): 0.0
Preemergence herbicidal rating TRZAWR ([5]; rate 0.0625 kg/ha): 0.5
Preemergence herbicidal rating TRZAWR ([5]; rate 0.1250 kg/ha): 0.5
Preemergence herbicidal rating TRZAWR ([5]; rate 0.2500 kg/ha): 1.0
Preemergence herbicidal rating TRZAWR ([5]; rate 0.5000 kg/ha): 4.0
IPOHE herbicidal rating ([6]; rate 0.0158 kg/ha): 9.0
IPOHE herbicidal rating ([6]; rate 0.0313 kg/ha): 9.0
IPOHE herbicidal rating ([6]; rate 0.0625 kg/ha): 9.0
IPOHE herbicidal rating ([6]; rate 0.1250 kg/ha): 9.0
CASOB herbicidal rating (CASOB (Sicklepod) [7]; rate 0.0158 kg/ha): 0.0
CASOB herbicidal rating (CASOB (Sicklepod) [7]; rate 0.0313 kg/ha): 0.0
CASOB herbicidal rating (CASOB (Sicklepod) [7]; rate 0.0625 kg/ha): 3.0
CASOB herbicidal rating (CASOB (Sicklepod) [7]; rate 0.1250 kg/ha): 6.0
Preemergence herbicidal rating ZEAMX (ZEAMX (Corn, Field); rate 0.0156 kg/ha): 0.5
Preemergence herbicidal rating ZEAMX (ZEAMX (Corn, Field); rate 0.0313 kg/ha): 0.0
Preemergence herbicidal rating ZEAMX (ZEAMX (Corn, Field); rate 0.0625 kg/ha): 0.5
Preemergence herbicidal rating ZEAMX (ZEAMX (Corn, Field); rate 0.1250 kg/ha): 1.0
Preemergence herbicidal rating ZEAMX (ZEAMX (Corn, Field); rate 0.2500 kg/ha): 2.5
Preemergence herbicidal rating ZEAMX (ZEAMX (Corn, Field); rate 0.5000 kg/ha): 7.0
GALAP herbicidal rating (GALAP (Galium); rate 0.0158 kg/ha): 2.0
GALAP herbicidal rating (GALAP (Galium); rate 0.0313 kg/ha): 3.0
GALAP herbicidal rating (GALAP (Galium); rate 0.0625 kg/ha): 4.0
GALAP herbicidal rating (GALAP (Galium); rate 0.1250 kg/ha): 9.0

From patent publication US20020137929A1, “1 - (3-heterocyclylphenyl) isothiourea, -isourea, -guanidine and -amidine herbicidal agents” (Intellectual Property Department, BASF Aktiengesellschaft, priority 1998, published 2002)
